According to patent US9578875B2, “Fungicidal composition” (priority 2013, dated 2017):
Like-named read-outs stand apart in the source and are kept apart here.

What was measured:
[1] = format: physicochemical
Description: The following compositions comprising cyazofamid and Mancozeb were prepared, with the different stabilizers substituted. The AHS stability of these formulations was tested.
The formulation prepared according to Example 1 (adjusted for purity of the technical material) was modified to replace the HMT content with 1.0% sodium carbonate. The stability of both the formulations were tested, with the following results: […]

[2] = format: physicochemical; conditions: for Cyazofamid Technical, 0 Day / Cyazofamid Technical, 14 Day: storage at 54° C.
Description: Experiment: Cyazofamid technical was mixed with Na2CO3 (Inorganic base) in one batch and with HMT (organic base) in the other. Both the samples were kept at 54° C. for 14 days. After 14 days, the cyazofamid content in both the samples was analyzed. […] The stability of cyazofamid technical was tested in the presence of an inorganic base and compared with the stability in the presence of an organic base, with the following results: […]

[3] = Example 1 formulation with HMT replaced by 1.0% Na2CO3
[4] = Example 1 formulation with HMT replaced by 1.0% Na2CO3, 14 D AHS at 54° C.
[5] = Example 1 formulation, presence of 1.0% HMT
[6] = Example 1 formulation, presence of 1.0% HMT, 14 D AHS at 54° C.

Molecule	drop in cyazofamid concentration upon accelerated storage (2 weeks at 54° C.) [%]	Degradation with respect to storage at ambient condition (14 days) [%]	Purity after 14 days of storage at 10° C. (glass bottle, air tight plug and cap, 10° C., 14 days)	Purity after 14 days of storage at 54 ± 2° C. (glass bottle, air tight plug and cap, 54 ± 2° C., 14 days)	Purity after 14 days, Room temperature (30-35° C.) (glass bottle, air tight plug and cap, room temperature (30-35° C.), 14 days)	Degradation (%) ([1]; 14 day)	Active content in formulation, 0 D [1, 3]	Active content in formulation, 14 D AHS at 54° C. [1, 4]	Active content in formulation, 0 D [1, 5]	Active content in formulation, 14 D AHS at 54° C. [1, 6]	Cyazofamid Technical, 0 Day ([2]; HMT 0.5%)	Cyazofamid Technical, 14 Day ([2]; HMT 0.5%)	Cyazofamid Technical, 0 Day ([2]; Na2CO3 0.5%)	Cyazofamid Technical, 14 Day ([2]; Na2CO3 0.5%)	Cyazofamid content, 0 D ([2]; Presence of 0.5% HMT)	Cyazofamid content, 14 D AHS at 54° C. ([2]; Presence of 0.5% HMT)	Cyazofamid content, 0 D ([2]; Presence of 0.5% Na2CO3)	Cyazofamid content, 14 D AHS at 54° C. ([2]; Presence of 0.5% Na2CO3)	Degradation (%) [1, 4] [%]	Degradation (%) [1, 6] [%]
Cc1ccc(-c2c(Cl)nc(C#N)n2S(=O)(=O)N(C)C)cc1 [Cyazofamid, 4-chloro-2-cyano-N,N-dimethyl-5-p-tolylimidazole-1-sulfonamide]	12.5	12.87	95.36	83.25	95.55	11.16	6.27 %, w/w	5.57 %, w/w	5.59 %, w/w	5.43 %, w/w	95.10	94.27	95.98	92.38	95.1 %, w/w	94.27 %, w/w	95.98 %, w/w	92.38 %, w/w	–	–
Mancozeb	–	–	–	–	–	–	70.67 %, w/w	70.49 %, w/w	70.34 %, w/w	70.14 %, w/w	–	–	–	–	–	–	–	–	0.25	0.28
